Structures are written as SMILES.

One test deals with MDA-MB-231 cells. In words: In-vitro cell viability test (CellTiter-Glo, 7 days). The settings on record: Homo sapiens, 168 h, 7 days incubation. It counts as cell-based. The procedure:
RPMI 1640 medium (Invitrogen-22400089); fetal bovine serum (Invitrogen-10099141); Trypsin, 0.05% (1×) with EDTA 4Na (Invitrogen-25300062); luminescent cell viability assay kit (Promega-G7573); Dulbecco's phosphate buffered saline (HyClone-SH30028.01B); and 384-well plate (Corning-6007680). Envision Multi-label Analyzer.
1. 30 μL of MDA-MB-231 cell suspension, which contained 250 MDA-MB-231 cells, was added into the wells of a 384-microwell plate.
2. 20 μL of a test compound (the test compounds were formulated at a high concentration of 10 μM, the test compounds were subjected to a 5-fold gradient dilution, and each compound was diluted to 10 concentration gradients) was added, and then the cell plate was put back into a carbon dioxide incubator to be incubated for 7 days.
3. The cell plate was kept flat at room temperature for 30 minutes.
4. 20 μL of a Promega CellTiter-Glo reagent was added into each well of the cell plate.
5. After 10 minutes, the Envision Multi-label Analyzer was used for data reading.
A general note: Cellular ATP, detected with luciferase, serves as a proxy for viable cell number.

The test system of test [1] is MDA-MB-231 triple-negative breast cancer CDX. Briefly: In-vivo drug efficacy study 2, MDA-MB-231 CDX model. Also on record: species or system BALB/c nude mice. As to the method:
(§1) The in-vivo drug efficacy experiments were carried out in BALB/c nude mice implanted subcutaneously with human tumor cell line-derived xenograft (CDX) derived from patients suffering from MDA-MB-231 triple-negative breast cancer.
(§2) BALB/c nude mice, female, 6 to 8 weeks old, weighing about 18 to 22 g, were kept in a special pathogen-free environment and in separated ventilated cages (3 mice per cage). All cages, bedding and water were disinfected before use. All animals had free access to standard certified commercial laboratory diets. A total of 48 mice purchased from Shanghai BK Laboratory Animal Co., LTD were used for the study. Each mouse was inoculated subcutaneously in the right flank with tumor cells (10×10^6 cells in 0.2 mL of a phosphate buffer) for tumor growth. The administration was initiated when the average tumor volume reached about 110 cubic millimeters. The test compounds were orally administered daily at a dose of 30 mg/kg. Tumor volumes were measured with a two-dimensional caliper every 3 days. The volume was measured in cubic millimeters and calculated by the following formula: V=0.5 a×b^2, where a and b were the long and short diameters of a tumor, respectively. Anti-tumor efficacy was determined by dividing the average increase in tumor volume of animals treated with a compound by the average increase in tumor volume of untreated animals.

Test [2] has the same test system. In words: In-vivo drug efficacy study 1, MDA-MB-231 CDX model. Also noted: species or system BALB/c nude mice. As to the method:
as §1
as §2, with “147” for “110”

On to `CN[C@@H](C)C(=O)N[C@H](C(=O)N1CCC[C@H]1Cn1cc(C(C)=O)c2cc(Cl)ccc21)C1CCCCC1` [Example 2], for which the IC50 (as a rule, the concentration needed to halve the response being measured) in the test on MDA-MB-231 cells worked out at 54.8 nM. Also, the Tumor volume in test [1] (Day 0, 30 mg/kg oral daily) is reported as 110 mm^3; in test [1] (Day 5, 30 mg/kg oral daily), 111 mm^3; in test [1] (Day 12, 30 mg/kg oral daily), 86 mm^3; in test [1] (Day 20, 30 mg/kg oral daily), 177 mm^3; in test [2] (Day 0, 30 mg/kg oral daily), 147 mm^3; in test [2] (Day 6, 30 mg/kg oral daily), 214 mm^3. In addition, the “Tumor volume” value in test [2] (Day 13, 30 mg/kg oral daily) came out at 282 mm^3; in test [2] (Day 20, 30 mg/kg oral daily), 810 mm^3.

The values above are taken from US11358950B2, “SMAC mimetics used as IAP inhibitors and use thereof” (CHIA TAI TIANQING PHARMACEUTICAL GROUP CO., LTD., priority 2017, dated 2022).
